US20260109695A1, “PEROXIREDOXIN 3 INHIBITORS AND METHODS OF USE FOR TREATING CANCER” (WAKE FOREST UNIVERSITY HEALTH SCIENCES, priority 2022, published 2026)
Values after ≈ are worked out from the molar mass of the structure shown.

Columns and labels:
[1] = test system: human SK-OV-3 ovarian cancer cells; experiment: Cellular Activity Assay (cytotoxicity, crystal violet); type: cell-based; conditions: SK-OV-3 cells, 48 hr treatment
Text: (§1) To test the activity of compounds, two complimentary assays were used as described below. The Biochemical PRX3 Inhibition Assay tests the ability of each compound to crosslink PRX3 in a simple, in vitro system. In the Cellular Activity Assay, we are testing the ability of compounds to kill SK-OV-3 ovarian cancer cells.
The Cellular Activity Assay measures the EC50 of each compound in human SK-OV-3 ovarian cancer cells TS to be taken into the cell, transported to the mitochondria, and crosslink PRX3.
The cytotoxicity of compounds was measured as described in Nelson et al. (2021) Antioxidants (Basel) 10, 150; Cunniff et al. (2015) PloS one 10, e0127310; and Newick et al. (2012) PloS one 7, e39404. SK-OV-3 is an adherent, epithelial, adenocarcenoma cell line obtained from ATCC (ref #: HTB-77). SK-OV-3 cells are resistant to the commonly used chemotherapeutics, cis-platinum and doxorubicin. For this PRX3 crosslinking assay, SK-OV-3 cells were plated in a 96-well plate. After 24 h recovery, the cells were treated for 48 hr with multiple concentrations of each compound ranging from 0.1-100 μM.
Cells were washed with PBS to remove dead cells and the remaining live cells were fixed with 3.0% formaldehyde and stained with 0.1% crystal violet. The amount of crystal violet was determined by reading the absorbance at 540 nm (crystal violet dye dissolved in 100% methanol) using a plate reader. The signal for crystal violet dye is proportional to the biomass of remaining live cells. GraphPad Prism9 software was used to calculate the effective inhibitory concentration (EC50) of test compounds. Results for each compound, are normalized to the amount of cells in control wells treated with the equivalent concentration of DMSO (negative control). TS or Compound B were included in each set of assays as a positive control.

Solubility Assay = type: physicochemical; conditions: 100 mM NaCl buffer, aqueous with cosolvent or surfactant or cyclodextrin, kinetic from dmso stock, 20 mM HEPES, pH 7.5, 18-24 hours at ambient temperature, read-out: Solubility
Protocol: A 20 mM stock solution was made for each compound in DMSO. To measure solubility, 0.03-0.05 mL of the stock was added to 0.27 mL 20 mM HEPES, 100 mM NaCl, pH 7.5. The solution was mixed and rotated 18-24 hours at ambient temperature. The next day, solutions were centrifuged for 10 min at 20,000×g at 24° C. to remove insoluble, solid material. Next, 100 μL of the supernatant containing the soluble compound was added to 900 μL DMSO and High Performance Liquid Chromatography was performed as described in Table 1 and either HPLC gradient 1 (Table 2) for HPLC gradient 2 (Table 3). For each analog, a 200 μM standard and a 20 μM standard were prepared and run in parallel (standards were dissolved completely in 100% DMSO). The amount of compound in the experimental sample was calculated by comparing the area under the curve for compound peak to the area for the closest standard and correcting for dilution.

[2] = test system: Enterococcus hirae (ATCC #10541); experiment: Antimicrobial Activity Assay; type: cell-based; conditions: Enterococcus hirae, minimal inhibitory concentration; for MIC: ATCC10541, read-out: Antimicrobial Activity
Protocol: The overnight growth was then diluted into growth media to make a single solution of E. hirae with a final optical density at 600 nm=0.02 AU. A 20 mM stock solution of Thiostrepton in DMSO was made and used to make multiple dilutions of TS in DMSO. Each TS dilution (0.1 mL) was then added to a test tube containing 10 mL of the diluted E. hirae and grown at 37° C. overnight while shaking at 180 rpm. The next morning, each tube was visually inspected to determine if the cells grew. Final concentrations tested were 0.120, 0.090, 0.075, 0.060, 0.045, 0.030, and 0.015 μM TS. […] Three replicates were made on three separate days (n=9). […] For TS analogs, the dilute E. hirae was treated with 20 µM final concentration of each analog (three replicates each). […] DMSO was used as a positive control (complete cell growth) and 20 µM thiostrepton was used as a negative control.

purified human PRX3 = molecular target: T1, purified human PRX3 (Homo sapiens, UniProt P30048); experiment: Biochemical PRX3 Inhibition Assay (crosslink by SDS-PAGE, mono-adduct by MALDI-TOF MS); conditions: 1-2 hr at 37° C.
T1 construct: made in house
T1 sequence (P30048 62-256): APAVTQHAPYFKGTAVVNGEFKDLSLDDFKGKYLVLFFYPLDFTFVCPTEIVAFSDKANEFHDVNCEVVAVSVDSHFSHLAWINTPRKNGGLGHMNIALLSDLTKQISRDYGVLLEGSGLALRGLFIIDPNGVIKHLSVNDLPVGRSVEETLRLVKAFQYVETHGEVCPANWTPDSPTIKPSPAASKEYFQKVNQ
Protocol: as §1
This assay tests the ability of each compound to form a covalent adduct with PRX3. The assay is performed as described in Nelson et al. (2021) Antioxidants (Basel) 10, 150; and Cunniff et al. (2015) PloS one 10, e0127310, and follows the appearance of non-reducible PRX3 crosslinks by SDS PAGE gel electrophoresis and follows the appearance of single PRX3 adducts by mass spectrometry. For this assay, purified human PRX3, hydrogen peroxide (the PRX3 substrate) and all the components required to enable PRX3 to catalytically cycle (thioredoxin-thioredoxin reductase-NAPDH system) are included (details below).
The biochemical PRX3 Inhibition assay contains 100 µM PRX3, 50 µM human TRX2, […] mouse thioredoxin reductase, and a NADPH regenerating system composed of 3.2 mM glucose 6-phosphate, 3.2 U/ml glucose 6-phosphate dehydrogenase and 0.4 mM NADPH. Samples are incubated for 1-2 hr at 37° C. with either 0.2 mM TS (positive control), compounds or an equivalent volume of DMSO (negative control). During this incubation, hydrogen peroxide is added to induce turnover of PRX3. Reactions are stopped by the addition of a buffer containing 100 mM dithiolthreitol (to break disulfide bonds) and SDS (detergent to denature proteins). NADPH, Glucose 6-Phosphate, and glucose 6-phosphate dehydrogenase were purchased from Sigma Aldrich. PRX3, thioredoxin, and thioredoxin reductase were all purified to >98% purity in the Lowther laboratory according to protocols referenced in Nelson et al. (2021) Antioxidants (Basel) 10, 150; and Cunniff et al. (2015) PloS one 10, e0127310.
To measure the amount of PRX3 crosslink, proteins in the reaction were separated by SDS-polyacrlyamide gel electrophoresis and stained for total protein using GelCode Blue (Life Technologies). The amount of unmodified PRX3 and TS-PRX3 crosslink was measured by densiometric analysis of the signal for the PRX3 band running at the MW of a PRX3 crosslink (−46 kDa) compared to the PRX3 signal at the MW of the un-modified PRX3 (˜23 kD).
To measure covalent adduct formation on a single PRX3 monomer, each reaction was exchanged into a mass spectrometry compatible buffer containing 40 mM ammonium citrate, pH 8.3 made in HPLC water. Sample was mixed 1:1 with a matrix solution containing 30 mg/mL sinapinic acid in 70% (vol/vol) acetonitrile, 0.2% formic acid and spotted to onto the sample plate. PRX3 mass was measured by MALDI-TOF MS analysis on a Bruker Daltonics MALDI-TOF MS spectrometer. Spectra were analyzed in FLEXAnalysis Software. The intensity of the reduced PRX3 peak (SH) and intensity of the analog adduct peak was determined and corrected for background signal at the adduct peak in the DMSO control. The fraction of single analog adduct in the monomer peak was determined by dividing the intensity of the adduct peak by the summed intensity of the SH and adduct peaks.

`C=C(NC(=O)c1csc(N2CCC(NC(=O)OC(C)(C)C)CC2)n1)C(=O)NC(=C)C(=O)N1CCCCC1` [Compound 1, Tert-butyl (1-(4-((3-oxo-3-((3-oxo-3-(piperidin-1-yl)prop-1-en-2-yl)amino)prop-1-en-2-yl)carbamoyl)thiazol-2-yl)piperidin-4-yl)carbamate] showed an EC50 [1] of 10 to 25 µM, a solubility (Solubility Assay) of less than 100 µM and an MIC [2] greater than 20 µM. The “PRX3 Inhibition (Crosslink + Mono-adduct)” value (“PRX3 Inhibition” below) (purified human PRX3) was “+++ (>90%)”.
`C=C(NC(=O)c1csc(N2CCC(NC(=O)OC(C)(C)C)CC2)n1)C(=O)NC(=C)C(=O)OCc1ccccc1` [Compound 2, Benzyl 2-(2-(2-(4-((tert-butoxycarbonyl)amino)piperidin-1-yl)thiazole-4-carboxamido)acrylamido)acrylate] gave an EC50 [1] of 1 to 10 µM, a solubility (Solubility Assay) of less than 100 µM and an MIC [2] greater than 20 µM. The “PRX3 Inhibition” value (purified human PRX3) was “++ (50-90%)”.
`C=C(NC(=O)c1csc(N2CCC(NC(=O)OC(C)(C)C)CC2)n1)C(=O)NC(=C)C(=O)OCCOC` [Compound 3, 2-Methoxyethyl 2-(2-(2-(4-((tert-butoxycarbonyl)amino)piperidin-1-yl)thiazole-4-carboxamido)acrylamido)acrylate] gave an EC50 [1] of 10 to 25 µM, a solubility (Solubility Assay) of 100 to 1000 µM (≈ 52.4 to 524 µg/mL) and an MIC [2] greater than 20 µM. For the same molecule, the “PRX3 Inhibition” value (purified human PRX3) was “+++ (>90%)”.
For `C=C(NC(=O)C(=C)NC(=O)c1csc(N2CCC(NC(=O)OC(C)(C)C)CC2)n1)C(=O)NCCOC` [Compound 4, Tert-butyl (1-(4-((3-((3-((2-methoxyethyl)amino)-3-oxoprop-1-en-2-yl)amino)-3-oxoprop-1-en-2-yl)carbamoyl)thiazol-2-yl)piperidin-4-yl)carbamate], the EC50 [1] was 10 to 25 µM, the solubility (Solubility Assay) was 100 to 1000 µM (≈ 52.3 to 523 µg/mL) and the MIC [2] was greater than 20 µM. For the same molecule, the “PRX3 Inhibition” value (purified human PRX3) was “+++ (>90%)”.
`C=C(NC(=O)c1csc(N2CCC(NC(=O)OC(C)(C)C)CC2)n1)C(=O)NC(=C)C(=O)OC1CCOCC1` [Compound 5, Tetrahydro-2H-pyran-4-yl 2-(2-(2-(4-((tert-butoxycarbonyl)amino)piperidin-1-yl)thiazole-4-carboxamido)acrylamido)acrylate] gave an EC50 [1] of 1 to 10 µM, a solubility (Solubility Assay) of less than 100 µM and an MIC [2] greater than 20 µM. The “PRX3 Inhibition” value (purified human PRX3) was “+++ (>90%)”.
For `C=C(NC(=O)c1csc(N2CCC(NC(=O)OC(C)(C)C)CC2)n1)C(=O)NC(=C)C(=O)OCC1CCOCC1` [Compound 6, (Tetrahydro-2H-pyran-4-yl)methyl 2-(2-(2-(4-((tert-butoxycarbonyl)amino)piperidin-1-yl)thiazole-4-carboxamido)acrylamido)acrylate], the EC50 [1] was 1 to 10 µM, the solubility (Solubility Assay) was less than 100 µM and the MIC [2] was greater than 20 µM. For the same molecule, the “PRX3 Inhibition” value (purified human PRX3) was “+++ (>90%)”.
In the case of `C=C(NC(=O)c1csc(N2CCC(NC(=O)OC(C)(C)C)CC2)n1)C(=O)NC(=C)C(=O)N(C)CCOC` [Compound 7, Tert-butyl (1-(4-((3-((3-((2-methoxyethyl)(methyl)amino)-3-oxoprop-1-en-2-yl)amino)-3-oxoprop-1-en-2-yl)carbamoyl)thiazol-2-yl)piperidin-4-yl)carbamate], the EC50 [1] is reported as 25 to 100 µM, the solubility (Solubility Assay) is reported as 100 to 1000 µM (≈ 53.7 to 537 µg/mL) and the MIC [2] is reported as greater than 20 µM. For the same molecule, the “PRX3 Inhibition” value (purified human PRX3) was “+++ (>90%)”.
`C=C(NC(=O)c1csc(N2CCC(NC(=O)OC(C)(C)C)CC2)n1)C(=O)NC(=C)c1nnc(C2CCOCC2)o1` [Compound 8, Tert-butyl (1-(4-((3-oxo-3-((1-(5-(tetrahydro-2H-pyran-4-yl)-1,3,4-oxadiazol-2-yl)vinyl)amino)prop-1-en-2-yl)carbamoyl)thiazol-2-yl)piperidin-4-yl)carbamate] gave an EC50 [1] of 10 to 25 µM, a solubility (Solubility Assay) of less than 100 µM and an MIC [2] greater than 20 µM. The “PRX3 Inhibition” value (purified human PRX3) was “+++ (>90%)”.
With `C=C(NC(=O)c1csc(N2CCC(NC(=O)OC(C)(C)C)CC2)n1)C(=O)NC(=C)C(=O)OC` [Compound A, Methyl 2-(2-(2-(4-((tert-butoxycarbonyl)amino)piperidin-1-yl)thiazole-4-carboxamido)acrylamido)acrylate, reference compound] the solubility (Solubility Assay) was less than 100 µM and the “Antimicrobial Activity” value [2] was “− (>20 μM)”.
In the case of `C=C(NC(=O)c1csc(-c2ccc(NC(=O)CCCCCBr)cc2)n1)C(=O)NC(=C)C(=O)OC` [Compound B, Methyl 2-(2-(2-(4-(6-bromohexanamido)phenyl)thiazole-4-carboxamido)acrylamido)acrylate, reference compound], the solubility (Solubility Assay) is reported as less than 100 µM.
